pIC50: −log10 of the molar value.
Tested on: 624824-186-R-J3-PDC multicell spheroids, viability
Test: Anticancer human tumor 624824-186-R-J3-PDC patient-derived colon adenocarcinoma cell line growth inhibition [PI3K]
Conditions: for pIC50: curve of first compound; for viability, T/C: stronger effect = lower value
Text: Combinatorial screen of targeted agents with the PI3K inhibitors inavolisib, alpelisib, duvelisib, and copanlisib in multi-cell type tumor spheroids
A high-throughput screen of multi-cell type tumor spheroids was designed to identify active combinations of targeted small molecules and PI3K pathway inhibitors. Complex spheroids include a stromal component modeled by human endothelial cells (HUVEC) and fibroblasts modeled by human mesenchymal stem cells (MSCs). The concentration ranges selected for each drug and investigational agent were based upon clinically achievable concentrations if the clinical Cmax of the agent was known.
Compounds. The drugs and investigational agents: inavolisib (NSC800729), alpelisib (NSC765974), duvelisib (NSC772469), copanlisib (NSC816437), ipatasertib (NSC767898), afuresertib (NSC778305), talazoparib (NSC767125), sapanisertib (NSC764658), selumetinib (NSC741078), tovorafenib (DAY101, NSC766906), vemurafenib (NSC761431), ravoxertinib (NSC781343), sotorasib (NSC818433), MRTX1133 (NSC 836407), abemaciclib (NSC 768073), palbociclib (NSC758247), venetoclax (NSC 766270), SY5609 (NSC837396), enzalutamide (NSC755605), and darolutamide (NSC825331), were obtained from the National Cancer Institute (NCI) Developmental Therapeutics Program Chemical Repository. The FDA-approved anticancer drug set is available from the NCI Developmental Therapeutics Program. […] The stock solutions were prepared in dimethyl sulfoxide (DMSO, Sigma-Aldrich, St. Louis, MO, cat. D2650) at 800-fold the tested concentration and stored at -70 degrees C prior to their use. All drugs and investigational agents were tested over a range starting from a high concentration at or near the clinical Cmax and decreasing in half-log increments. If the clinical Cmax for an agent had not been determined, the highest concentration tested was 10 microM.
Cell Culture. All cells were maintained in an incubator at 37 degrees C and 5% CO2 with 95% humidity. The PDC lines were cultured according to standard operating procedures established by the NCI PDMR (https://pdmr.cancer.gov/sops/default.htm). All PDCs were thawed and cultured in Matrigel-coated flasks prepared with a working solution of 1X Ham's F-12 nutrient mix, without supplementation (Invitrogen, Waltham, MA, cat. 11765054), 100 U/mL penicillin-streptomycin (Invitrogen, cat. 15140122), and 2.5% Matrigel (Corning Inc., Corning, NY, cat. 354248) for the first three passages. The 354836-022-R-J1-PDC, 475296-252-R-J1-PDC, and 997726-040-R-J2-PDC lines were cultured in 6A media, which includes advanced DMEM/F-12 (Thermo Fisher Scientific, cat. 12634028), 10 mM HEPES (Thermo Fisher Scientific, cat. 15630080), 1X GlutaMAX supplement (Thermo Fisher Scientific, cat. 35050061), 0.1 mg/mL primocin (InvivoGen, San Diego, CA, cat. ant-pm-2), 10% defined fetal bovine serum, heat inactivated (HyClone Laboratories Inc., Logan, UT, cat. SH30070.03HI), 50% L-WRN conditioned media (ATCC, cat. CRL-3276), 1.25 mM N-Acetyl-L-cysteine (Sigma-Aldrich, cat. A9165), 10 mM nicotinamide (Sigma-Aldrich, cat. N0636), 1X B-27 supplement (Thermo Fisher Scientific, cat. 17504044), 1X N-2 supplement (Thermo Fisher Scientific, cat. 17502048), and 10 microM Y-27632 dihydrochloride (Tocris Bioscience, Bristol, United Kingdom, cat. 1254). The 624824-186-R-J2-PDC line was cultured in 6C/Colon 1B media, which includes all 6A media components plus 50 ng/mL human EGF recombinant protein (Thermo Fisher Scientific, cat. PHG0311). […]
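Further: spheroids exposed to agents for seven days before luminescence read.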
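Wherever viability, T/C is given: luminescent signal used as a stand-in for spheroid viability; percent viability relative to DMSO vehicle control wells taken as 100%.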

Q: Which results are given for `Cn1ncnc1[C@H]1c2n[nH]c(=O)c3cc(F)cc(c23)N[C@@H]1c1ccc(F)cc1` + CC(Nc1ccc2c(c1)OCCn1cc(N3C(=O)OCC3C(F)F)nc1-2)C(N)=O?
A: pIC50 (second compound 0.00316 µM): < 7.00; pIC50 (second compound 0.01 µM): < 7.00; pIC50 (second compound 0.0316 µM): < 7.00; pIC50 (second compound 0.1 µM): < 7.00; pIC50 (second compound 0.316 µM): < 7.00; pIC50 (second compound 1 µM): < 7.00; viability, T/C (second compound 0.00316 µM, first compound 0.000316 µM): 102%; viability, T/C (second compound 0.00316 µM, first compound 0.001 µM): 93.5%; viability, T/C (second compound 0.00316 µM, first compound 0.00316 µM): 101%; viability, T/C (second compound 0.00316 µM, first compound 0.01 µM): 99.7%; viability, T/C (second compound 0.00316 µM, first compound 0.0316 µM): 87.8%; viability, T/C (second compound 0.00316 µM, first compound 0.1 µM): 111%; viability, T/C (second compound 0.01 µM, first compound 0.000316 µM): 97.8%; viability, T/C (second compound 0.01 µM, first compound 0.001 µM): 93.6%; viability, T/C (second compound 0.01 µM, first compound 0.00316 µM): 102%; viability, T/C (second compound 0.01 µM, first compound 0.01 µM): 95.7%; viability, T/C (second compound 0.01 µM, first compound 0.0316 µM): 101%; viability, T/C (second compound 0.01 µM, first compound 0.1 µM): 92.1%; viability, T/C (second compound 0.0316 µM, first compound 0.000316 µM): 107%; viability, T/C (second compound 0.0316 µM, first compound 0.001 µM): 99.7%; viability, T/C (second compound 0.0316 µM, first compound 0.00316 µM): 97.5%; viability, T/C (second compound 0.0316 µM, first compound 0.01 µM): 92.8%; viability, T/C (second compound 0.0316 µM, first compound 0.0316 µM): 97.4%; viability, T/C (second compound 0.0316 µM, first compound 0.1 µM): 106%; viability, T/C (second compound 0.1 µM, first compound 0.000316 µM): 94.7%; viability, T/C (second compound 0.1 µM, first compound 0.001 µM): 105%; viability, T/C (second compound 0.1 µM, first compound 0.00316 µM): 100%; viability, T/C (second compound 0.1 µM, first compound 0.01 µM): 99.8%; viability, T/C (second compound 0.1 µM, first compound 0.0316 µM): 104%; viability, T/C (second compound 0.1 µM, first compound 0.1 µM): 106%; viability, T/C (second compound 0.316 µM, first compound 0.000316 µM): 93.8%; viability, T/C (second compound 0.316 µM, first compound 0.001 µM): 99.3%; viability, T/C (second compound 0.316 µM, first compound 0.00316 µM): 98.2%; viability, T/C (second compound 0.316 µM, first compound 0.01 µM): 91.6%; viability, T/C (second compound 0.316 µM, first compound 0.0316 µM): 96.7%; viability, T/C (second compound 0.316 µM, first compound 0.1 µM): 100%; viability, T/C (second compound 1 µM, first compound 0.000316 µM): 90.6%; viability, T/C (second compound 1 µM, first compound 0.001 µM): 90.3%; viability, T/C (second compound 1 µM, first compound 0.00316 µM): 94%; viability, T/C (second compound 1 µM, first compound 0.01 µM): 91.9%; viability, T/C (second compound 1 µM, first compound 0.0316 µM): 99.1%; viability, T/C (second compound 1 µM, first compound 0.1 µM): 86.6%

From PubChem BioAssay AID1963977 (Molecular Pharmacology Branch, DTP, NCI, 2024)
